In patent US9682960B2 (priority 2013, dated 2017):
Several values for one entry are separate records, joined by “and”; a condition that tells them apart may be missing. Identical values can stand only once. Entries after “also recorded” stand apart in the source; their conditions may differ. Like-named read-outs stand apart in the source and are kept apart here.

Legend:
Androgen Receptor = experiment: Overall classification (antiandrogen / SARM) in the models studied
Human Androgen Receptor = Human Androgen Receptor (Homo sapiens (Human), UniProt P10275); experiment: Androgen receptor assay: [3H]R1881 displacement, cytosol of HEK-293 cells transfected with hAR (hydroxylapatite assay); format: binding; settings: for Human Androgen Receptor Binding RBA (%) R1881 = 100: relative binding affinity
[1] = test system: intact immature male rats; experiment: Activity in intact immature male rats; format: in vivo, rat
Experimental: Immature male rats (Crl:CD(SD)Br) 22 to 24-day old weighting 60-80 g at start of treatment were obtained from Charles-River, Inc. (St-Constant, Quebec, Canada) and housed up to 5 per cage in plastic bins in a temperature (23±1° C.)- and light (12 h light/day, lights on at 7 h15)-controlled environment. The rats were fed rodent chow and tap water ad libitum. […] The day following their arrival, the designed animals were orchidectomized (CX) under Isoflurane anesthesia (Study Day 1) via the scrotal route and were then randomly assigned to groups of 3 to 5 animals. At the time of orchidectomy, one silastic implant of dihydrotestosterone (DHT; 1 cm length of pure DHT in silastic tubing having inner and outer diameter of 0.078 and 0.125 inches, respectively), was inserted subcutaneously in the dorsal area of animals assigned to the evaluation of antiandrogenic activity. In the case of intact animal experiments, the orchidectomy and the silastic implant installation are omitted.
Tested compounds were administered orally once daily for 7 days from Study Day 2 to Study Day 8 at doses generally ranging from 0.1 and 0.5 mg/animal. Compounds were either solubilized in dimethylsulfoxide (DMSO, 10% final concentration) and were administered as a solution/suspension in 0.9% NaCl-1% gelatin or were administered as suspensions in 0.4% aqueous methylcellulose. Animals of the control groups received the corresponding vehicle alone during the 7-day period. Some animals were treated with the antiandrogen Flutamide or Casodex as reference. The animals under isoflurane anesthesia were killed by cervical dislocation on day 9 of the study, approximately 24 h after the last dosing. The ventral prostate, seminal vesicles and bulbocavernosus muscles were rapidly dissected and weighed.
For calculations with intact animals, control DHT is replaced by control intact and the % stimulation is subtracted by 100%. W is the weight of the prostate, seminal vesicles or bulbocavernosus muscles. Discussion

[2] = test system: Shionogi mouse mammary carcinoma cells; experiment: In vitro androgenic/antiandrogenic activity: proliferation of Shionogi cells with or without DHT; format: cell-based
[3] = test system: castrated (CX) immature male rats; experiment: Systemic androgenic (agonistic) activity in orchidectomized (CX) immature male rats; format: in vivo, rat; settings: for CX Agonistic activity % Stimulation Bulbo / CX Agonistic activity % Stimulation SV / CX Agonistic activity % Stimulation Prostate: 0.1 mg/rat/po, 7 days; for CX Agonistic activity % Stimulation Bulbo: bulbocavernosus muscles weight; for CX Agonistic activity % Stimulation SV: seminal vesicles weight; for CX Agonistic activity % Stimulation Prostate: ventral prostate weight
[4] = test system: PSA levels in human prostatic carcinoma LNCaP cells; experiment: Prostate specific antigen (PSA) in LNCaP cells with or without R1881; format: cell-based
Experimental: LNCaP cells were cultured as previously described (Qi et al. 2001). In brief, the LNCaP cells were cultured for 6 days in 1.0 ml RPMI 1640 supplemented with hormone-depleted 0.25% FCS before each experiment. At the start of the experiment, half of the medium (0.5 ml) was replaced with 0.5 ml of identical medium containing the appropriate concentrations of tested compounds, in the presence or absence of 1.0 nM of R1881. After 72 h of incubation of LNCaP cells with compounds, 0.5 ml of culture medium was removed for PSA determination. PSA levels were measured using the PSA [^125I] IRMA KIT (REF: RK-10CT) from Izotop (Institute of Isotopes Ltd, Budapest, Hungary).

[5] = Oral absorption, Experiment 2: plasma, intraprostatic and intramuscular concentrations after 0.5 mg EM-9150/animal in castrated male rats; format: in vivo; settings: Sprague-Dawley, rat, 0.5 mg/animal; for concentration at 7 h: po
Experimental: Castrated male Sprague-Dawley rats (Crl:CD(SD)Br) weighing 275-375 g were used for pharmacokinetic studies. Animals were fasted (access to water only) from around 16 h00 the afternoon prior to the dosing day.
Blood samples (˜0.5 mL/timepoint) were collected by jugular venipuncture on animals under isoflurane anesthesia at 1, 2, 3, 4, 7 and 24 h post-dosing. Blood samples were put into tubes containing EDTA(K3) as anticoagulant and centrifuged at 4° C. for 10 min at 1700-2400 g. The resulting plasma was frozen on dry ice and kept at −80° C. pending analysis. […] Prostates and bulbocavernosus muscles were frozen in liquid nitrogen and kept at −80° C. until being used. A buffer and an ethanol-acetone solution were added to the tissue and homogenized with a Polytron. The supernatant was collected, evaporated to dryness and reconstituted in buffer.
Intraprostatic and intramuscular concentrations of the compounds were also determined by LC-MS/MS.

Rat Androgen Receptor = Rat Androgen Receptor (Rattus norvegicus (Rat), UniProt P15207); experiment: Androgen receptor assay: [3H]R1881 displacement, rat prostate cytosol; format: binding; settings: for Rat Androgen Receptor Binding RBA (%) R1881 = 100: relative binding affinity, prostate cytosol
Experimental: On the morning of the binding assay, ventral prostates collected from 24 h-gonadectomized rats were homogenized in buffer A (1 g of tissue in 5 mL) and the homogenate was centrifuged as described above.
Androgen binding is measured using the hydroxylapatite (HAP) assay. In brief, the radioactive steroid [^3H]R1881 solubilized in ethanol is diluted with buffer B (10 mM Tris-HCl, 1.5 mM EDTA disodium salt, 10 mM α-monothioglycerol, pH 7.4). Aliquots of the cell or prostate cytosol preparation (0.1 ml) are then incubated with 5 nM [^3H]R1881 (0.1 ml, ˜100 000 cpm) in the presence or absence of the indicated concentrations of unlabeled compounds (0.1 ml, prepared in buffer B containing 30% ethanol) for 16-18 h at 0-4° C. Triamcinolone acetonide (TAC; 100 nM) is added to mask progesterone receptors. Unbound steroids are separated by incubation for 40 min at 0-4° C. with 0.3 ml HAP prepared in buffer P (50 mM Tris-HCl, 10 mM KH2PO4, pH 7.4). After incubation with HAP and 10 min of centrifugation at 1000×g, the pellet is washed 3 times with 1 ml of buffer P. Thereafter, the radioactivity is extracted from the pellet by incubation at room temperature for 60 min with 1 ml of ethanol. After centrifugation, the supernatant is decanted into a scintillation vial and the pellet is extracted again with ethanol. After the addition of scintillation liquid, the radioactivity is measured in a liquid scintillation counter.
Relative binding affinity (RBA) was calculated by the following formula: RBA (%) [IC50(R1881)/IC50 (compound)]×100 B—In Vitro Assay of Androgenic/Antiandrogenic Activity

[6] = immature castrated rat, oral 7 days

Chain of Rat Androgen Receptor (P15207 whole entry, looked up): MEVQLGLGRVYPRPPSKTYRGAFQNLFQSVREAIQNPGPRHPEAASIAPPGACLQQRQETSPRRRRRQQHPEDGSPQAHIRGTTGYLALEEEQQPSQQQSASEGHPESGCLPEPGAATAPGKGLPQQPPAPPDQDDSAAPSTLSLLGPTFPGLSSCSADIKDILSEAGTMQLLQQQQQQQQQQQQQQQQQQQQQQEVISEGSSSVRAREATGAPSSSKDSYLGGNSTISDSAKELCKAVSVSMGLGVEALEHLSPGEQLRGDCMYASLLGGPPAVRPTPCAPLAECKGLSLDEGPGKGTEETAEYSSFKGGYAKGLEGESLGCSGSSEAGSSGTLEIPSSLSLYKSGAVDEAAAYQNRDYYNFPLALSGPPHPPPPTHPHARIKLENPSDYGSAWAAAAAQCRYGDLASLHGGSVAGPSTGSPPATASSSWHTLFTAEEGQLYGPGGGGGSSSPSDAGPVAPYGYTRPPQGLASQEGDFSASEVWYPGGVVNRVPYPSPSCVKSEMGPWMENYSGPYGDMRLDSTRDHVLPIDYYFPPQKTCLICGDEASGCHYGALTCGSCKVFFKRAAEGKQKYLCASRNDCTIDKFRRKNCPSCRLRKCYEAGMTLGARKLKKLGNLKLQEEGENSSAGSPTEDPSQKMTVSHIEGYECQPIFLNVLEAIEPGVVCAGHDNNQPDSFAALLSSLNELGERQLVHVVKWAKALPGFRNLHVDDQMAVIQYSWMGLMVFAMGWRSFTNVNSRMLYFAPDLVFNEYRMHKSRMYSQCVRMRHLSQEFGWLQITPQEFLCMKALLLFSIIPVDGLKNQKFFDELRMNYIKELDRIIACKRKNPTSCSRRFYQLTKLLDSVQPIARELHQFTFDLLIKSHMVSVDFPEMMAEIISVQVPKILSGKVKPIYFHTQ
Chain of Human Androgen Receptor (P10275 whole entry): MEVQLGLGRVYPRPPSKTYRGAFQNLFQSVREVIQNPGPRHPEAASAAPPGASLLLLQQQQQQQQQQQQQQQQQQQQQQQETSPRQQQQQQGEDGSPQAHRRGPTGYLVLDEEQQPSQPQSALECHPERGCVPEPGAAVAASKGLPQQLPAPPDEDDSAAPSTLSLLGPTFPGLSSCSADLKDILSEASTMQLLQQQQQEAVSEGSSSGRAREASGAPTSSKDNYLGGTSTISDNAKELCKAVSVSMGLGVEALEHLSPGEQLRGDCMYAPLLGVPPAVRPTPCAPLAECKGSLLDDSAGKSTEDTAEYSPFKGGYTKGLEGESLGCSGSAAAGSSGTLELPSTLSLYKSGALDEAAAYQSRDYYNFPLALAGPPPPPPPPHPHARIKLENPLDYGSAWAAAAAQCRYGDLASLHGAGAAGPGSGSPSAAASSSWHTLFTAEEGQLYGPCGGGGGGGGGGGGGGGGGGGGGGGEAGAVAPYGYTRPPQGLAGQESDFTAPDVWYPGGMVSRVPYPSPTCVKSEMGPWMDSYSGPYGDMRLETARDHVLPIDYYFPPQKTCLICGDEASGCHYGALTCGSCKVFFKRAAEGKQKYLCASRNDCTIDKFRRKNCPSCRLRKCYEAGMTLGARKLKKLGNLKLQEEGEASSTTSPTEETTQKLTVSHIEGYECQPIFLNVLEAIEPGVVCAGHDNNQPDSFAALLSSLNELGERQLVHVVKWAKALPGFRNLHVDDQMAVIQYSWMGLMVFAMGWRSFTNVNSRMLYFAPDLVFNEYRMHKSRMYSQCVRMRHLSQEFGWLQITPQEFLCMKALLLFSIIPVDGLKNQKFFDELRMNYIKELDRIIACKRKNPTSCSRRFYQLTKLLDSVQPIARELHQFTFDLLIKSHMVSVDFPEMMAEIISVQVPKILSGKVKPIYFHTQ

## Cc1c(N2C(=O)N(CCCOc3ccc(-c4ccncc4)cc3Cl)C(C)(C)C2=O)ccc(C#N)c1Cl [EM-9251]
Androgen Receptor
  classification as antiandrogen or SARM (in words): selective androgen receptor modulators
Human Androgen Receptor; […]
  Human Androgen Receptor Binding RBA (%) R1881 = 100: 253%
Human Androgen Receptor; versus hydroxyflutamide
  times more potent than OH-flutamide on the human AR (RBA ratio): 1200 times
[1]; immature intact rat
  activity on the bulbocavernosus muscles (in words): agonistic activity
  activity on the prostate and seminal vesicles (in words): antagonistic activity
[1]; intact immature rat, 7 days
  inhibition of intact rat prostate: 25±4%
  inhibition of intact rat seminal vesicles: 35±7%
  stimulation of the bulbocavernosus muscles in intact rat: 77±6%
[2]; Mus musculus, read-out: Shionogi Antiandrogenic Activity IC50, DHT (0.3 nM)-stimulated cell number
  IC50: 67.7 nM
[2]; basal (no DHT), 10^−7M
  % of stimulation at 10^−7M on basal Shionogi cells: 38%
[3]
  CX Agonistic activity % Stimulation Bulbo: 119±24% and 119 ± 24 (n = 2) %
  CX Agonistic activity % Stimulation SV: 27 ± 1 (n = 2) %
  CX Agonistic activity % Stimulation Prostate: 41 ± 2 (n = 2) %
[3]; [6]
  activity on the bulbocavernosus muscles (in words): agonistic activity
  activity on the prostate and seminal vesicles (in words): mixed agonistic-antagonistic activity

## CC1(C)C(=O)N(c2ccc(C#N)c(Cl)c2)C(=O)N1CCCOc1ccc(-c2ccncc2)cc1Cl [EM-9150]
Androgen Receptor
  classification as antiandrogen or SARM (in words): antiandrogens
[4]; Homo sapiens, LNCaP, read-out: LNCaP Cells Antiandrogenic activity (PSA) % inhibition at 10^−7M, R1881-stimulated, 10^−7M of compound
  inhibition at 0.1 µM: 57%
[4]; LNCaP, versus bicalutamide
  times more potent than bicalutamide in blocking R1881-stimulated PSA secretion: 11.0 times and 10 times
[4]; basal (no R1881), 10^−7M
  stimulation at 10^−7M of basal PSA levels in LNCaP cells (in words): absence of stimulation; also recorded: no stimulation
[4]; versus thiohydantoins of WO 2006/133567
  times more inhibition of PSA levels in human LNCaP cells compared to the thiohydantoins: ≥ 2 times
[5]; bulbocavernosus muscles, read-out: intramuscular concentration
  concentration at 7 h: 1.2 ng/g
[5]; plasma, read-out: plasma concentration
  concentration at 7 h: 0.9 ng/mL
[5]; prostate / plasma, oral, read-out: concentration in the rat prostate versus plasma
  Kp at 7 h: ~3
[5]; ventral prostate, read-out: intraprostatic concentration
  concentration at 7 h: 2.9 ng/g
Rat Androgen Receptor
  Rat Androgen Receptor Binding RBA (%) R1881 = 100: 6.5%
Rat Androgen Receptor; versus OH-flutamide
  times more potent than OH-flutamide in the rat AR assay: 65 times
Rat Androgen Receptor; versus bicalutamide
  times more potent than bicalutamide in the rat AR assay: 32 times
Human Androgen Receptor; versus bicalutamide
  times more potent than bicalutamide to displace R1881 from the human AR: 247 times
[2]; basal (no DHT), 10^−7M
  stimulation at 10^−7M on basal Shionogi cell proliferation (in words): absence of stimulation
[3]
  CX Agonistic activity % Stimulation Bulbo: 1%
  CX Agonistic activity % Stimulation SV: 0%
  CX Agonistic activity % Stimulation Prostate: 0%
[3]; daily oral dosing for 7 days, immature castrated rat
  agonistic activity on ventral prostate weight (in words): no agonistic activity

## CC(C)NCc1ccc(OCCCN2C(=S)N(c3ccc(C#N)c(C(F)(F)F)c3)C(=O)C2(C)C)cc1 [EM-7105, reference compound]
[4]; R1881-stimulated, 10^−7M of compound
  LNCaP Cells Antiandrogenic activity (PSA) % inhibition at 10^−7M: 26%
Rat Androgen Receptor
  Rat Androgen Receptor Binding RBA (%) R1881 = 100: 3.9%
Human Androgen Receptor; transfected cells
  Human Androgen Receptor Binding RBA (%) R1881 = 100: 41% and 41 ± 30%
Human Androgen Receptor; thiohydantoin versus hydantoin (EM-9052 vs EM-9150; EM-7105 vs EM-7333)
  times more binding to the human androgen receptor than the corresponding hydantoin: around 140 times
[2]; DHT (0.3 nM)-stimulated cell number, read-out: Shionogi Antiandrogenic Activity IC50
  IC50: 9.4 nM
